Our source for the inhibition values is US8071605B2, “Piperidine compounds for use in the treatment of bacterial infections” (AstraZeneca AB, priority 2008, dated 2011).

This assay concerns the target S. aureus GyrB ATPase (Staphylococcus aureus, UniProt P0A0K8). The assay can be described thus: S. aureus GyrB ATPase inhibition (ammonium molybdate/malachite green phosphate detection). The format is biochemical. The settings on record: compound concentration of 1 μM (unless otherwise noted). Here is the method: E. coli GyrB ATPase Inhibition Activity: Compounds can be tested for inhibition of E. coli GyrB ATPase activity using an ammonium molybdate/malachite green-based phosphate detection assay (Lanzetta, P. A., L. J. Alvarez, P. S. Reinach, and O. A. Candia, 1979, 100: 95-97). Assays can be performed in multiwell plates in 30 μl reactions containing: 50 mM Hepes buffer pH 7.5, 75 mM ammonium acetate, 8.0 mM magnesium chloride, 0.5 mM ethylenediaminetetraacetic acid, 5% glycerol, 1 mM 1,4-Dithio-DL-threitol, 200 nM bovine serum albumin, 1.6 μg/ml sheared salmon sperm DNA, 400 pM E. coli GyrA, 400 pM E. coli GyrB, 250 μM ATP, and compound in dimethylsulfoxide. Reactions can be quenched with 30 μl of ammonium molybdate/malachite green detection reagent containing 1.2 mM malachite green hydrochloride, 8.5 mM ammonium molybdate tetrahydrate, and 1 M hydrochloric acid. Plates can be read in an absorbance plate reader at 650 nm and percent inhibition values are calculated using dimethylsulfoxide (2%)-containing reactions as 0% inhibition and EDTA-containing (2.4 μM) reactions as 100% inhibition controls. An IC50 measurement of compound potency for each compound can be determined from reactions performed in the presence of 10 different compound concentrations. E. coli Topoisomerase IV ATPase Inhibition Activity: Compounds can be tested for inhibition of E. coli topoisomerase IV ATPase activity as described above for E. coli GyrB except the 30 μl reactions contained the following: 20 mM TRIS buffer pH 8, 50 mM ammonium acetate, 8 mM magnesium chloride, 5% glycerol, 5 mM 1,4-Dithio-DL-threitol, 0.005% Brij-35, 5 μg/ml sheared salmon sperm DNA, 500 pM E. coli ParC, 500 pM E. coli ParE, 160 μM ATP, and compound in dimethylsulfoxide. An IC50 measurement of compound potency for each compound can be determined from reactions performed in the presence of 10 different compound concentrations. S. aureus GyrB ATPase Inhibition Activity: Compounds may be tested for inhibition of S. aureus GyrB ATPase activity using an ammonium molybdate/malachite green-based phosphate detection assay (Lanzetta, P. A., L. J. Alvarez, P. S. Reinach, and O. A. Candia, 1979, 100: 95-97). Assays can be performed in multiwell plates in 30 μl reactions containing: 50 mM Hepes buffer pH 7.5, 75 mM ammonium acetate, 8.0 mM magnesium chloride, 0.5 mM ethylenediaminetetraacetic acid, 5% glycerol, 1.0 mM 1,4-Dithio-DL-threitol, 200 nM bovine serum albumin, 1.0 μg/ml sheared salmon sperm DNA, 250 pM E. coli GyrA, 250 pM S. aureus GyrB, 250 μM ATP, and compound in dimethylsulfoxide. Reactions can be quenched with 30 μl of ammonium molybdate/malachite green detection reagent containing 1.2 mM malachite green hydrochloride, 8.5 mM ammonium molybdate tetrahydrate, and 1 M hydrochloric acid. Plates can be read in an absorbance plate reader at 650 nm and percent inhibition values can be calculated using dimethylsulfoxide (2%)-containing reactions as 0% inhibition and EDTA-containing (2.4 μM) reactions as 100% inhibition controls. An IC50 measurement of compound potency for each compound can be determined from reactions performed in the presence of 10 different compound concentrations.
Compounds of the invention were tested in an assay substantially similar to the assay described above for measuring the inhibition of S. aureus GyrB ATPase. Percent inhibition of S. aureus GyrB ATPase at a compound concentration of 1 μM (unless otherwise noted) is disclosed in the following table: […]

Sequence of S. aureus GyrB ATPase (P0AES4 whole entry): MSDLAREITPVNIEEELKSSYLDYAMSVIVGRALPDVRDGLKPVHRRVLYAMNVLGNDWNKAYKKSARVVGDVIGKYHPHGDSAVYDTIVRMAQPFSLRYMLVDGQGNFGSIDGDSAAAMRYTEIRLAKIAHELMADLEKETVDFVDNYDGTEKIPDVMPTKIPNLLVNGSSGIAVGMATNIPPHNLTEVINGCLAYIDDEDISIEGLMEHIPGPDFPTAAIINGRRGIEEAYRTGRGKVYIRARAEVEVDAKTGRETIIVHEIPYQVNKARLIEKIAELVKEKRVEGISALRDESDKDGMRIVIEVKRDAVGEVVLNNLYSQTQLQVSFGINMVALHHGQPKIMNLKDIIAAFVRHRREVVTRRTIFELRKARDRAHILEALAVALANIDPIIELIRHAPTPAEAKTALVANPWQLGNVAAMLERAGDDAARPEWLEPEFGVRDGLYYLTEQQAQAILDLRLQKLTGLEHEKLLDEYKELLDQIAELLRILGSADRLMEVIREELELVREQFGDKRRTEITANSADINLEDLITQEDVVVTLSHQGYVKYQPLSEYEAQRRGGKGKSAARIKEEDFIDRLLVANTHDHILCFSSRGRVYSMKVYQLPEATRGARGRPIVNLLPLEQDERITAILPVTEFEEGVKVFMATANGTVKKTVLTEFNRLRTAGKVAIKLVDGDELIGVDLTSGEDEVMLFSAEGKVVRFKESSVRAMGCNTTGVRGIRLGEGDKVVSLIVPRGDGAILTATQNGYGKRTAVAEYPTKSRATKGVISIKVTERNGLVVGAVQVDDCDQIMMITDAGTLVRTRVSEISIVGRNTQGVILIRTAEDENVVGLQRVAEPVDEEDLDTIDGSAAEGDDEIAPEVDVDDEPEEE
Sequence of S. aureus GyrB ATPase (P0A0K8 whole entry): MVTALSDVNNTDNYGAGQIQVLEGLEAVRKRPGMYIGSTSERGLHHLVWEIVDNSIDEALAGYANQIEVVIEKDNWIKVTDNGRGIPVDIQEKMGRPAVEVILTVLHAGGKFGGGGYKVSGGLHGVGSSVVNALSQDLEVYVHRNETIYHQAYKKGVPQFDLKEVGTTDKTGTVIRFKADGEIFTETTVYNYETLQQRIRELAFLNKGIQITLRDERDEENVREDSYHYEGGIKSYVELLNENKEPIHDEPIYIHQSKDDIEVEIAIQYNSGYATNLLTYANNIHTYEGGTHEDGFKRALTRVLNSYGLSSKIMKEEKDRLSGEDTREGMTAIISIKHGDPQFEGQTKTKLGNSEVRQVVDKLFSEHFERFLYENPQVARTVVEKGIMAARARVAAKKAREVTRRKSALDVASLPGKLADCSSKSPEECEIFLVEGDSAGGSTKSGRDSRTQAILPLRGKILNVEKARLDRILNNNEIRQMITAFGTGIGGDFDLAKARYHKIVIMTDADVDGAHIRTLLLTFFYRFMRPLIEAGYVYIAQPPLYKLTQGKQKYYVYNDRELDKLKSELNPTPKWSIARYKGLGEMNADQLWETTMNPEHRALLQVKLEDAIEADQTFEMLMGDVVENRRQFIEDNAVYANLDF

The inhibition is the change of the read-out against control, counted positive when it falls. In the case of `Cc1[nH]c(C(=O)N[C@@H]2CCN(c3nc(-c4cnc(N5CCNCC5)cn4)c(C(=O)O)s3)C[C@@H]2C)c(Cl)c1Cl` [Example 168, 2-[(3S,4R)-4-{[(3,4-dichloro-5-methyl-1H-pyrrol-2-yl)carbonyl]amino}-3-methylpiperidin-1-yl]-4-[5-(piperazin-1-yl)pyrazin-2-yl]-1,3-thiazole-5-carboxylic acid], the inhibition at 1 µM turned out to be 102%.

In the case of `Cc1[nH]c(C(=O)N[C@@H]2CCN(c3nc(-c4cnc(NCCN5CCCC5=O)cn4)c(C(=O)O)s3)C[C@@H]2C)c(Cl)c1Cl` [Example 169, 2-[(3S,4R)-4-{[(3,4-dichloro-5-methyl-1H-pyrrol-2-yl)carbonyl]amino}-3-methylpiperidin-1-yl]-4-(5-{[2-(2-oxopyrrolidin-1-yl)ethyl]amino}pyrazin-2-yl)-1,3-thiazole-5-carboxylic acid], the inhibition at 1 µM came out at 102%.

`COCCNc1cnc(-c2nc(N3CC[C@@H](NC(=O)c4[nH]c(C)c(Cl)c4Cl)[C@@H](C)C3)sc2C(=O)O)cn1` [Example 170, 2-[(3S,4R)-4-{[(3,4-dichloro-5-methyl-1H-pyrrol-2-yl)carbonyl]amino}-3-methylpiperidin-1-yl]-4-{5-[(2-methoxyethyl)amino]pyrazin-2-yl}-1,3-thiazole-5-carboxylic acid]: the inhibition at 1 µM is 119%.

Regarding `Cc1[nH]c(C(=O)N[C@@H]2CCN(c3nc(-c4cnc(NCCN5CCOCC5)cn4)c(C(=O)O)s3)C[C@@H]2C)c(Cl)c1Cl` [Example 171, 2-[(3S,4R)-4-{[(3,4-dichloro-5-methyl-1H-pyrrol-2-yl)carbonyl]amino}-3-methylpiperidin-1-yl]-4-(5-{[2-(morpholin-4-yl)ethyl]amino}pyrazin-2-yl)-1,3-thiazole-5-carboxylic acid], the inhibition at 1 µM was determined as 101%.

On to `COCC(COC)Nc1cnc(-c2nc(N3CC[C@@H](NC(=O)c4[nH]c(C)c(Cl)c4Cl)[C@@H](C)C3)sc2C(=O)O)cn1` [Example 172, 2-[(3S,4R)-4-{[(3,4-dichloro-5-methyl-1H-pyrrol-2-yl)carbonyl]amino}-3-methylpiperidin-1-yl]-4-{5-[(1,3-dimethoxypropan-2-yl)amino]pyrazin-2-yl}-1,3-thiazole-5-carboxylic acid], for which the inhibition at 1 µM was found to be 109%.

For the compound `Cc1[nH]c(C(=O)N[C@@H]2CCN(c3nc(-c4cnc(NCCN5CCNC5=O)cn4)c(C(=O)O)s3)C[C@@H]2C)c(Cl)c1Cl` [Example 173, 2-[(3S,4R)-4-{[(3,4-dichloro-5-methyl-1H-pyrrol-2-yl)carbonyl]amino}-3-methylpiperidin-1-yl]-4-(5-{[2-(2-oxoimidazolidin-1-yl)ethyl]amino}pyrazin-2-yl)-1,3-thiazole-5-carboxylic acid], the inhibition at 1 µM was determined as 104%.

`Cc1[nH]c(C(=O)N[C@@H]2CCN(c3nc(-c4cnc(NCCN(C)C)cn4)c(C(=O)O)s3)C[C@@H]2C)c(Cl)c1Cl` [Example 174, 2-[(3S,4R)-4-{[(3,4-dichloro-5-methyl-1H-pyrrol-2-yl)carbonyl]amino}-3-methylpiperidin-1-yl]-4-(5-{[2-(dimethylamino)ethyl]amino}pyrazin-2-yl)-1,3-thiazole-5-carboxylic acid]: the inhibition at 1 µM was 102%.

For the compound `Cc1[nH]c(C(=O)N[C@@H]2CCN(c3nc(-c4cnc(NCCN5CCN(C)CC5)cn4)c(C(=O)O)s3)C[C@@H]2C)c(Cl)c1Cl` [Example 175, 2-[(3S,4R)-4-{[(3,4-dichloro-5-methyl-1H-pyrrol-2-yl)carbonyl]amino}-3-methylpiperidin-1-yl]-4-(5-{[2-(4-methylpiperazin-1-yl)ethyl]amino}pyrazin-2-yl)-1,3-thiazole-5-carboxylic acid], the inhibition at 1 µM stood at 106%.

Regarding `Cc1[nH]c(C(=O)N[C@@H]2CCN(c3nc(-c4cnc(N5CCN(CC(C)C)CC5)cn4)c(C(=O)O)s3)C[C@@H]2C)c(Cl)c1Cl` [Example 176, 2-[(3S,4R)-4-{[(3,4-dichloro-5-methyl-1H-pyrrol-2-yl)carbonyl]amino}-3-methylpiperidin-1-yl]-4-{5-[4-(2-methylpropyl)piperazin-1-yl]pyrazin-2-yl}-1,3-thiazole-5-carboxylic acid], the inhibition at 1 µM turned out to be 108%.

Turning to `Cc1[nH]c(C(=O)N[C@@H]2CCN(c3nc(-c4cnc(N5CCN(CC6CCCN(C)C6)CC5)cn4)c(C(=O)O)s3)C[C@@H]2C)c(Cl)c1Cl` (stereo partly drawn) [Example 177, 2-[(3S,4R)-4-{[(3,4-dichloro-5-methyl-1H-pyrrol-2-yl)carbonyl]amino}-3-methylpiperidin-1-yl]-4-(5-{4-[(1-methylpiperidin-3-yl)methyl]piperazin-1-yl}pyrazin-2-yl)-1,3-thiazole-5-carboxylic acid], the inhibition at 1 µM was 107%.

`Cc1[nH]c(C(=O)N[C@@H]2CCN(c3nc(-c4cnc(N5CCN(CC6CCCCC6)CC5)cn4)c(C(=O)O)s3)C[C@@H]2C)c(Cl)c1Cl` [Example 178, 4-{5-[4-(cyclohexylmethyl)piperazin-1-yl]pyrazin-2-yl}-2-[(3S,4R)-4-{[(3,4-dichloro-5-methyl-1H-pyrrol-2-yl)carbonyl]amino}-3-methylpiperidin-1-yl]-1,3-thiazole-5-carboxylic acid]: the inhibition at 1 µM came to 102%.

`CCC(CC)N1CCN(c2cnc(-c3nc(N4CC[C@@H](NC(=O)c5[nH]c(C)c(Cl)c5Cl)[C@@H](C)C4)sc3C(=O)O)cn2)CC1` [Example 179, 2-[(3S,4R)-4-{[(3,4-dichloro-5-methyl-1H-pyrrol-2-yl)carbonyl]amino}-3-methylpiperidin-1-yl]-4-{5-[4-(pentan-3-yl)piperazin-1-yl]pyrazin-2-yl}-1,3-thiazole-5-carboxylic acid]: the inhibition at 1 µM was found to be 104%.

On to `CCN(CC)CCN1CCN(c2cnc(-c3nc(N4CC[C@@H](NC(=O)c5[nH]c(C)c(Cl)c5Cl)[C@@H](C)C4)sc3C(=O)O)cn2)CC1` [Example 180, 2-[(3S,4R)-4-{[(3,4-dichloro-5-methyl-1H-pyrrol-2-yl)carbonyl]amino}-3-methylpiperidin-1-yl]-4-(5-{4-[2-(diethylamino)ethyl]piperazin-1-yl}pyrazin-2-yl)-1,3-thiazole-5-carboxylic acid], for which the inhibition at 1 µM worked out at 103%.

As to `Cc1[nH]c(C(=O)N[C@@H]2CCN(c3nc(-c4cnc(N5CCN[C@H](C)C5)cn4)c(C(=O)O)s3)C[C@@H]2C)c(Cl)c1Cl` [Example 181, 2-[(3S,4R)-4-{[(3,4-dichloro-5-methyl-1H-pyrrol-2-yl)carbonyl]amino}-3-methylpiperidin-1-yl]-4-{5-[(3R)-3-methylpiperazin-1-yl]pyrazin-2-yl}-1,3-thiazole-5-carboxylic acid], the inhibition at 1 µM came to 101%.

Regarding `Cc1[nH]c(C(=O)N[C@@H]2CCN(c3nc(-c4cnc(N5CCN(CCO)CC5)cn4)c(C(=O)O)s3)C[C@@H]2C)c(Cl)c1Cl` [Example 182, 2-[(3S,4R)-4-{[(3,4-dichloro-5-methyl-1H-pyrrol-2-yl)carbonyl]amino}-3-methylpiperidin-1-yl]-4-{5-[4-(2-hydroxyethyl)piperazin-1-yl]pyrazin-2-yl}-1,3-thiazole-5-carboxylic acid], the inhibition at 1 µM came out at 117%.
